pIC50: −log10 of the molar value. “Also recorded” adds a separate entry of the source. Where two headings read alike, the source gives them in different places.
What was measured:
[1] = test system: human colorectal carcinoma cell line HT29; experiment: MTS cell viability assay, HT-29; assay type: cell-based; details: for pIC50: HT-29, from dose-response curves (FIG. 4, FIG. 5), read-out: concentration inhibiting cell growth by 50% (IC50), molar basis
Description: The comestible use of the fruit products and its potential anticancer properties prompted the current investigation as to whether the active constituents could be used to treat colorectal cancer. The robust MTS cell viability assay with the p53-mutant human colon HT-29 cell line served as an assay-guided screening tool for the purification of the active principles of the fruit extract (see further description in the Example section).
Erythroleukemia K562, human colon HT-29 and breast MCF-7 cancer cell lines were obtained from the American Type Culture Collection (Manassas, Va., USA). All cells were maintained in Dulbecco's modified Eagle's medium (DMEM) supplemented with 10% fetal bovine serum, penicillin (100 U ml^−1) and streptomycin (100 U ml^−1). Cells were incubated at 37° C. in a 5% CO2 humidified atmosphere.
Cells were seeded at a density of 1.5×10^4 cells/well on a 96-well plate. When the cells reached 60 to 70% confluency, the growth medium was aspirated and the wells were rinsed with pre-warmed PBS. Test compounds at various concentrations or 1% DMSO (vehicle control) were then added and the plates were incubated for 72 h. After incubation, 40 μL of a solution of CellTiter 96 Aqueous One Solution (Promega, Madison, Wis., USA) containing MTS [3-(4,5-dimethylthiazol-2-yl)-5-(3-carboxymethoxyphenyl)-2-(4-sulfophenyl)-2H-tetrazolium)] and an electron coupling reagent (phenazine ethosulfate) were added to each well with an auto-repeat pipetor. The plates were incubated for 3 hours during which time the reagent was bio-reduced into a colored formazan product by the intracellular dehydrogenase enzymes of metabolically active cells. The quantity of formazan produced is directly proportional to the number of living cells in the cultures. The absorbance (A) was measured at 490 nm (reference at 690 nm) on a PowerWave 200 microplate reader (Bio-Tek Instruments). The results were expressed as percent cell viability, calculated for each drug concentration using the formula:
% Viability=(A treated group/A control group)×100%.
(100% viability was represented by samples with DMSO vehicle control).
The half-maximal inhibitory concentration, IC50, values were obtained from the sigmoidal curve by plotting the percentage viability of cells against the drug concentration using Psi-Plot version 9, Poly Software International (Pearl River, N.Y., USA).

colon cell line LoVo = details: Planta Medica 2010: 76:1672-1677; cited from earlier work
hepatic carcinoma = details: especially in high concentrations; Molecular Medicine Reports 2:725-732, 2009; cited from earlier work
[2] = HT29, MTS cell viability, 72 h, average of two independent experiments in triplicate

| IC50 ([1]; Homo sapiens, HT-29, HT29, MTS cell viability, 72 h, average of two independent experiments in triplicate, read-out: Activity IC50) [µg/mL] | pIC50 ([1]; Homo sapiens) | Activity IC50 [1, 2] [µg/mL] | pIC50 [1] | SMILES | activity against LoVo (in words) (colon cell line LoVo) | apoptosis induction in hepatic carcinoma (in words) (hepatic carcinoma) | anti-proliferative activity against HT-29 (in words) ([1]; HT-29) | anti-proliferative activity against HT-29 (in words) ([1]; HT-29, listed as schisandrin) |
| --- | --- | --- | --- | --- | --- | --- | --- | --- |
| 140 | 3.47 | – | – | COc1cc2c(c(OC)c1OC)-c1c(cc(OC)c(OC)c1OC)C[C@H](C)[C@@H](C)C2 [Deoxyschisandrin, deoxyschisandrin] | – | – | – | – |
| – | – | 17 | 4.37 | COc1cc2c(c(OC)c1OC)-c1c(cc3c(c1OC)OCO3)C[C@H](C)[C@H](C)C2 [Gomisin N, gomisin N] | do not find Gomisin N to be active | induces high apoptotic levels | – | – |
| – | – | 348 | 3.16 | C/C=C(/C)C(=O)Oc1c(OC)c(OC)cc2c1-c1c(cc(OC)c(OC)c1OC)C[C@](C)(O)[C@@H](C)C2 [Angeloylgomisin H, angeloylgomisin H] | – | – | moderate activity | – |

Further lines, the compound ahead of its results:

| SMILES | IC50 ([1]; Homo sapiens, HT-29, HT29, MTS cell viability, 72 h, average of two independent experiments in triplicate, read-out: Activity IC50) [µg/mL] | pIC50 ([1]; Homo sapiens) | Activity IC50 [1, 2] [µg/mL] | pIC50 [1] | activity against LoVo (in words) (colon cell line LoVo) | apoptosis induction in hepatic carcinoma (in words) (hepatic carcinoma) | anti-proliferative activity against HT-29 (in words) ([1]; HT-29) | anti-proliferative activity against HT-29 (in words) ([1]; HT-29, listed as schisandrin) |
| --- | --- | --- | --- | --- | --- | --- | --- | --- |
| COc1cc2c(c(OC)c1OC)-c1c(cc(OC)c(OC)c1OC)C[C@](C)(O)[C@@H](C)C2 [Schisandrin, schisandrin] | – | – | >1000 | – | – | – | devoid of detectable biological activity | does not show any activity; also recorded: inactive |
| COc1cc2c(c(OC)c1OC)-c1c(cc3c(c1OC)OCO3)C[C@H](C)[C@](C)(O)C2 [Gomisin A, gomisin A] | – | – | 300 | 3.15 | – | – | – | – |

— patent US20120052142A1, “BIOLOGICALLY ACTIVE COMPOSITIONS FROM Schisandra chinensis FOR TREATING COLORECTAL CANCER” (Dr. Chang Naturals, LLC, priority 2010, published 2012)
